Measurements taken from PMC10873978, “Novel tetrahydroisoquinolines as DHFR and CDK2 inhibitors: synthesis, characterization, anticancer activity and antioxidant properties” (BMC Chemistry, 2024).

Columns and labels:
[1] = test system: A549 cell line; experiment: In vitro cytotoxic activity, MTT method, A549; conditions: for IC50: Homo sapiens, read-out: IC50 ± SD
Description: (§1) Cell lines: The in vitro human breast cancerous cell line (MCF7), lung cancerous cell lines (A549) and normal cell lines were purchased from Serum and Vaccine formulation in Cairo-Egypt.
(§2) In vitro cytotoxic activity of all synthesized compounds against two human breast cell line (MCF7) and lung cell lines (A549) was evaluated according to the MTT method. Firstly, Growth the cell line medium in 96 well tissue culture plate was injected with 10^5 cells/mL (100 uL/plate well) of the cell line and incubated at 37 °C for 24 h to develop a monolayer sheet then the formed growth medium was poured from 96 well microtiter plates after the confluent sheet of cells. […] Secondly, add 0.1 mL of each concentration tetrahydroisoquinoline sample to each plate. The plates were incubated at 37 °C. Thirdly MTT solution (5 mg/mL in PBS) is prepared. Add 20 µL of MTT solution to each well plates. And shaking in 150 rpm for 5 min, to mix the MTT into the media. Then incubate at (37 °C, 5% CO2) for 1–5 h. Finally read the optical density at 560 nm and subtract background at 620 nm.
(§3) In this work, doxorubicin was used as a positive control drug for comparison with the synthesized compounds under the same experimental conditions.

[2] = test system: MCF7 cell line; experiment: In vitro cytotoxic activity, MTT method, MCF7; format: cell-based, human; conditions: for IC50: Homo sapiens, MCF7, MCF7 cell line, MTT
Description: as §1, §2, §3

CCOC(=O)CSc1nc(C)c2c(c1C#N)CC(C)(O)C(C(C)=O)C2c1ccc(N(C)C)cc1 (stereo not drawn) [Compound 4, Ethyl 2-((7-Acetyl-4-cyano-1,6-dimethyl-6-hydroxy-8-(4-N,N-dimethylamino-phenyl)-5,6,7,8-tetrahydroisoquinolin-3-yl)thio)acetate]
Toxicity % ([1]; A549, Conc. 0.0487 µMol): 1.8%
Viability % ([1]; A549, Conc. 0.0487 µMol): 98.2%
Toxicity % ([1]; A549, Conc. 0.0975 µMol): 2%
Viability % ([1]; A549, Conc. 0.0975 µMol): 98%
Toxicity % ([1]; A549, Conc. 0.195 µMol): 3.945%
Viability % ([1]; A549, Conc. 0.195 µMol): 96.06%
Toxicity % ([1]; A549, Conc. 0.391 µMol): 21.14%
Viability % ([1]; A549, Conc. 0.391 µMol): 78.86%
Toxicity % ([1]; A549, Conc. 0.781 µMol): 32.54%
Viability % ([1]; A549, Conc. 0.781 µMol): 67.46%
Toxicity % ([1]; A549, Conc. 1.562 µMol): 62.13%
Viability % ([1]; A549, Conc. 1.562 µMol): 37.87%
Toxicity % ([1]; A549, Conc. 3.125 µMol): 70.97%
Viability % ([1]; A549, Conc. 3.125 µMol): 29.03%
Toxicity % ([1]; A549, Conc. 6.25 µMol): 89.19%
Viability % ([1]; A549, Conc. 6.25 µMol): 10.81%
Toxicity % ([1]; A549, Conc. 12.5 µMol): 95.94%
Viability % ([1]; A549, Conc. 12.5 µMol): 4.063%
Toxicity % ([1]; A549, Conc. 25 µMol): 97.28%
Viability % ([1]; A549, Conc. 25 µMol): 2.722%
IC50 [1]: 0.918 ± 0.002 µM
IC50 [2]: 3.074 ± 0.008 µM
Toxicity % ([2]; MCF7, 0.0487 µMol): 0.03467%
Viability % ([2]; MCF7, 0.0487 µMol): 99.94%
Toxicity % ([2]; MCF7, 0.0975 µMol): 0.06434%
Viability % ([2]; MCF7, 0.0975 µMol): 99.94%
Toxicity % ([2]; MCF7, 0.195 µMol): 0.0817%
Viability % ([2]; MCF7, 0.195 µMol): 99.92%
Viability % ([2]; MCF7, 0.391 µMol): 100%
Toxicity % ([2]; MCF7, 0.781 µMol): 7.925%
Viability % ([2]; MCF7, 0.781 µMol): 92.08%
Toxicity % ([2]; MCF7, 1.562 µMol): 23.41%
Viability % ([2]; MCF7, 1.562 µMol): 76.59%
Toxicity % ([2]; MCF7, 3.125 µMol): 36.89%
Viability % ([2]; MCF7, 3.125 µMol): 63.11%
Toxicity % ([2]; MCF7, 6.25 µMol): 82.07%
Viability % ([2]; MCF7, 6.25 µMol): 17.93%
Toxicity % ([2]; MCF7, 12.5 µMol): 91.75%
Viability % ([2]; MCF7, 12.5 µMol): 8.252%
Toxicity % ([2]; MCF7, 25 µMol): 96.81%
Viability % ([2]; MCF7, 25 µMol): 3.186%

CC(=O)C1C(c2ccc(N(C)C)cc2)c2c(C)nc(SCC(N)=O)c(C#N)c2CC1(C)O (stereo not drawn) [Compound 5, 2-[(7-Acetyl-4-cyano-1,6-dimethyl-6-hydroxy-8-(4-N,N-dimethylamino-phenyl)-5,6,7,8-tetrahydroisoquinolin-3-yl)thio]acetamide]
Toxicity % ([1]; A549, Conc. 0.0487 µMol): 0%
Viability % ([1]; A549, Conc. 0.0487 µMol): 100%
Toxicity % ([1]; A549, Conc. 0.0975 µMol): 0.13%
Viability % ([1]; A549, Conc. 0.0975 µMol): 99.87%
Toxicity % ([1]; A549, Conc. 0.195 µMol): 0.3156%
Viability % ([1]; A549, Conc. 0.195 µMol): 99.68%
Toxicity % ([1]; A549, Conc. 0.391 µMol): 9.625%
Viability % ([1]; A549, Conc. 0.391 µMol): 90.37%
Toxicity % ([1]; A549, Conc. 0.781 µMol): 36.96%
Viability % ([1]; A549, Conc. 0.781 µMol): 63.04%
Toxicity % ([1]; A549, Conc. 1.562 µMol): 54.08%
Viability % ([1]; A549, Conc. 1.562 µMol): 45.92%
Toxicity % ([1]; A549, Conc. 3.125 µMol): 69.66%
Viability % ([1]; A549, Conc. 3.125 µMol): 30.34%
Toxicity % ([1]; A549, Conc. 6.25 µMol): 83.27%
Viability % ([1]; A549, Conc. 6.25 µMol): 16.73%
Toxicity % ([1]; A549, Conc. 12.5 µMol): 91.6%
Viability % ([1]; A549, Conc. 12.5 µMol): 8.402%
Toxicity % ([1]; A549, Conc. 25 µMol): 96.37%
Viability % ([1]; A549, Conc. 25 µMol): 3.629%
IC50 [1]: 1.247 ± 0.002 µM
IC50 [2]: 0.924 ± 0.007 µM
Toxicity % ([2]; MCF7, 0.0487 µMol): -4.567%
Viability % ([2]; MCF7, 0.0487 µMol): 104.5%
Toxicity % ([2]; MCF7, 0.0975 µMol): -3.545%
Viability % ([2]; MCF7, 0.0975 µMol): 103.6%
Toxicity % ([2]; MCF7, 0.195 µMol): -2.859%
Viability % ([2]; MCF7, 0.195 µMol): 102.9%
Toxicity % ([2]; MCF7, 0.391 µMol): 4.208%
Viability % ([2]; MCF7, 0.391 µMol): 95.79%
Toxicity % ([2]; MCF7, 0.781 µMol): 35.46%
Viability % ([2]; MCF7, 0.781 µMol): 64.54%
Toxicity % ([2]; MCF7, 1.562 µMol): 77.53%
Viability % ([2]; MCF7, 1.562 µMol): 22.47%
Toxicity % ([2]; MCF7, 3.125 µMol): 88.89%
Viability % ([2]; MCF7, 3.125 µMol): 11.11%
Toxicity % ([2]; MCF7, 6.25 µMol): 93.91%
Viability % ([2]; MCF7, 6.25 µMol): 6.087%
Toxicity % ([2]; MCF7, 12.5 µMol): 96.85%
Viability % ([2]; MCF7, 12.5 µMol): 3.145%
Toxicity % ([2]; MCF7, 25 µMol): 97.22%
Viability % ([2]; MCF7, 25 µMol): 2.778%

CC(=O)C1C(c2ccc(N(C)C)cc2)c2c(C)nc3sc(C(=O)Nc4ccc(C)cc4)c(N)c3c2CC1(C)O (stereo not drawn) [Compound 8b, 7-Acetyl-1-amino-5,8-dimethyl-8-hydroxy-6-(4-N,N-dimethylaminophenyl)-N-(4-tolyl)-6,7,8,9-tetrahydrothieno[2,3-c]isoquinoline-2-carboxamide]
Toxicity % ([1]; A549, Conc. 0.04875 µMol): 8.929%
Toxicity % ([1]; A549, Conc. 0.0975 µMol): 10.49%
Toxicity % ([1]; A549, Conc. 0.195 µMol): 12.58%
Viability % ([1]; A549, Conc. 0.195 µMol): 87.42%
Toxicity % ([1]; A549, Conc. 0.391 µMol): 21.42%
Viability % ([1]; A549, Conc. 0.391 µMol): 78.58%
Toxicity % ([1]; A549, Conc. 0.781 µMol): 51.95%
Viability % ([1]; A549, Conc. 0.781 µMol): 48.05%
Toxicity % ([1]; A549, Conc. 1.562 µMol): 61.42%
Viability % ([1]; A549, Conc. 1.562 µMol): 38.58%
Toxicity % ([1]; A549, Conc. 3.125 µMol): 70.69%
Viability % ([1]; A549, Conc. 3.125 µMol): 29.31%
Toxicity % ([1]; A549, Conc. 6.25 µMol): 84.3%
Viability % ([1]; A549, Conc. 6.25 µMol): 15.7%
Toxicity % ([1]; A549, Conc. 12.5 µMol): 93.25%
Viability % ([1]; A549, Conc. 12.5 µMol): 6.746%
Toxicity % ([1]; A549, Conc. 25 µMol): 96.06%
Viability % ([1]; A549, Conc. 25 µMol): 3.945%
IC50 [1]: 0.527 ± 0.002 µM
IC50 [2]: 3.8 ± 0.008 µM
Toxicity % ([2]; MCF7, Conc. 0.0487 µMol): 0.0678%
Viability % ([2]; MCF7, Conc. 0.0487 µMol): 99.9322%
Toxicity % ([2]; MCF7, Conc. 0.0975 µMol): 0.1234%
Viability % ([2]; MCF7, Conc. 0.0975 µMol): 99.8766%
Toxicity % ([2]; MCF7, Conc. 0.195 µMol): 0.2042%
Viability % ([2]; MCF7, Conc. 0.195 µMol): 99.8%
Toxicity % ([2]; MCF7, Conc. 0.391 µMol): -0.2042%
Viability % ([2]; MCF7, Conc. 0.391 µMol): 100.2%
Toxicity % ([2]; MCF7, Conc. 0.781 µMol): 2.124%
Viability % ([2]; MCF7, Conc. 0.781 µMol): 97.88%
Toxicity % ([2]; MCF7, Conc. 1.562 µMol): 13.36%
Viability % ([2]; MCF7, Conc. 1.562 µMol): 86.64%
Toxicity % ([2]; MCF7, Conc. 3.125 µMol): 24.63%
Viability % ([2]; MCF7, Conc. 3.125 µMol): 75.37%
Toxicity % ([2]; MCF7, Conc. 6.25 µMol): 60.13%
Viability % ([2]; MCF7, Conc. 6.25 µMol): 39.87%
Toxicity % ([2]; MCF7, Conc. 12.5 µMol): 88.07%
Viability % ([2]; MCF7, Conc. 12.5 µMol): 11.93%
Toxicity % ([2]; MCF7, Conc. 25 µMol): 96.69%
Viability % ([2]; MCF7, Conc. 25 µMol): 3.309%
